Key:
EGFR kinase = EGFR kinase (Homo sapiens, UniProt P00533); assay: Enzymatic experiment on EGFR (HTRF kinEASE-TK); assay type: biochemical; settings: ATP 1.65 μM; read-out: Kinase IC50 (nM) in vitro EGFR
Summary of the method: (§1)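 HTRF kinEASE-TK with biotinylated TK substrate in HEPES pH 7.0 buffer containing MnCl2, MgCl2 and DTT; ErbB2 at 0.06 ng/μl with 4 μM ATP, EGFR at 0.06 units/μl with 1.65 μM ATP, 30 min at room temperature after 5 min enzyme/substrate–compound preincubation. Ten-point 3-fold dilutions; Eu antibody/SA-XL665 detection, 665/620 ratio.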

ErbB2 kinase = ErbB2 kinase (Homo sapiens, UniProt P04626); assay: Enzymatic experiment on ErbB2 (HTRF kinEASE-TK); assay type: biochemical; settings: ATP 4 μM; read-out: Kinase IC50 (nM) in vitro ErbB2
Sequence of ErbB2 kinase (P04626 23-1255): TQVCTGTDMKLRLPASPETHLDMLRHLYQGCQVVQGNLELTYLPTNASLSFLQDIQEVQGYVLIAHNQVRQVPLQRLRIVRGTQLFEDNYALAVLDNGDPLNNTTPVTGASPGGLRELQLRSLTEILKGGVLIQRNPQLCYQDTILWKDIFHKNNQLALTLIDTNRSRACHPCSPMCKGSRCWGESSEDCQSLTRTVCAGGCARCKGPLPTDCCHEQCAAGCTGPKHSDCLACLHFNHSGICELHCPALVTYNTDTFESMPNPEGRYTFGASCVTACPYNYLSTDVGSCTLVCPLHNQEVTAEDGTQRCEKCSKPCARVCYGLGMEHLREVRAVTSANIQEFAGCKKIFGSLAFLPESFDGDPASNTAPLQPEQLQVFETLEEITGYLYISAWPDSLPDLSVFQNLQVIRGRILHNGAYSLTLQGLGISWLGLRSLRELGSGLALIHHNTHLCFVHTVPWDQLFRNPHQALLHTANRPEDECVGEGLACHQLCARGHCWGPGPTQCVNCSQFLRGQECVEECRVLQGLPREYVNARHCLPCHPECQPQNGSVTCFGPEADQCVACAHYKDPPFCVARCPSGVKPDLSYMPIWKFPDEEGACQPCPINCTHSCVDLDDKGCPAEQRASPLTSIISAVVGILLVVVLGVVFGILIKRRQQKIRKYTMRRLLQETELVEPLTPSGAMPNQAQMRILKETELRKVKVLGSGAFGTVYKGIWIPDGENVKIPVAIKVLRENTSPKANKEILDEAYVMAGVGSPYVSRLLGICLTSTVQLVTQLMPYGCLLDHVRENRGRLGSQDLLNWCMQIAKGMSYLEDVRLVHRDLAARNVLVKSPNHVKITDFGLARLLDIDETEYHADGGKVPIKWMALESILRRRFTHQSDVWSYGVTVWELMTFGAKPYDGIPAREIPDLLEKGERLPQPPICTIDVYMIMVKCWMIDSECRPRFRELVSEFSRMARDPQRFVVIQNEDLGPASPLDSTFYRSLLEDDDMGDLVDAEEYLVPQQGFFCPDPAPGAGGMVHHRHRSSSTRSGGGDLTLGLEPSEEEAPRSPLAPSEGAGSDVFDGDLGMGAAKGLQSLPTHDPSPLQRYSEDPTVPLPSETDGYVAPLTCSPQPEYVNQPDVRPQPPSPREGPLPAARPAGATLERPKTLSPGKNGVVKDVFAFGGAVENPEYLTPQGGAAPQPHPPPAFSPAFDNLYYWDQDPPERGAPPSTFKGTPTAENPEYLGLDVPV
Summary of the method: as §1

N87 = assay: Proliferation inhibition assay in vitro, N87 (CellTiter-Glo); assay type: cell-based; settings: Homo sapiens; 72 hours; read-out: IC50(nM) cell N87
Summary of the method: (§2)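 Cells were seeded at 8.8×10^4 cells/mL for BT-474 or 6.6×10^4 cells/mL for N87 and grown overnight. Compound was added at 9 concentrations in duplicate for 72 h at 37 °C, 5% CO2. Viability was measured by CellTiter-Glo.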

BT-474 = assay: Proliferation inhibition assay in vitro, BT-474 (CellTiter-Glo); assay type: cell-based; settings: Homo sapiens, 72 hours, read-out: IC50(nM) cell BT-474
Summary of the method: as §2

Sequence of EGFR kinase (P00533 25-1210): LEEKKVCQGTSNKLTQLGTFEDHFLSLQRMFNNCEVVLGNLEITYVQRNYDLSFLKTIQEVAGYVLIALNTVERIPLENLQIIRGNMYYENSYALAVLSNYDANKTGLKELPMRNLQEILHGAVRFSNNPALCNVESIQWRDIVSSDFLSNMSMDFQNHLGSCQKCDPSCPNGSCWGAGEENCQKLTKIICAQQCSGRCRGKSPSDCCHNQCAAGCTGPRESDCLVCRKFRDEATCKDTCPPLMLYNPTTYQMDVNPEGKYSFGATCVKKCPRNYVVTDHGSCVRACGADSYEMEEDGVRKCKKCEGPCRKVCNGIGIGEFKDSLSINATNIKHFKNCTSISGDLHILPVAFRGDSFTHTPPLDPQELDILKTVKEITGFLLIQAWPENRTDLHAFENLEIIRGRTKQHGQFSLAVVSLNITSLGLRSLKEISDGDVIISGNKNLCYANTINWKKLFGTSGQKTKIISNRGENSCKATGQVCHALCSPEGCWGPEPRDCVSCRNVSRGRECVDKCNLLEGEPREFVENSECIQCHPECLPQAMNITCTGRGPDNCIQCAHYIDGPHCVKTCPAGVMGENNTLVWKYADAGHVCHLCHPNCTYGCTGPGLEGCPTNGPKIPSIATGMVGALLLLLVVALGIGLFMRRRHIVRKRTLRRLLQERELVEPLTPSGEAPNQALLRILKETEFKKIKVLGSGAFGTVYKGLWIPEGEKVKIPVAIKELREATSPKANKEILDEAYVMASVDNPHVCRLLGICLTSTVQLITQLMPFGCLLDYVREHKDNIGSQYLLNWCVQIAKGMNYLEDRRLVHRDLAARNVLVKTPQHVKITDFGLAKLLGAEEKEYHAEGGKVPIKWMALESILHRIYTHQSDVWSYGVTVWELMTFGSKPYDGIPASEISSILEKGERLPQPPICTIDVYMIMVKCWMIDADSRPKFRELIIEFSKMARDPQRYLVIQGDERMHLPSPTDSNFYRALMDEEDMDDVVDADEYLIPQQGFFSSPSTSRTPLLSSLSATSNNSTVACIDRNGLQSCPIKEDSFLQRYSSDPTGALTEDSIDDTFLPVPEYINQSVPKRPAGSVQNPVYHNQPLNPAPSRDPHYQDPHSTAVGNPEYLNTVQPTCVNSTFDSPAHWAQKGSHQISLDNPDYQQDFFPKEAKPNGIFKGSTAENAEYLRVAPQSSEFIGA

Q: Which IC50 (EGFR kinase) does the source give for `Cc1cc(Nc2ncnc3ccc(NC4=NC(C)(C)CO4)cc23)ccc1Oc1cc2nncn2cn1` [Embodiment 4, N^4-(4-([1,2,4]triazolo[4,3-c]pyrimidin-7-yloxy)-3-methylphenyl)-N^6-(4,4-dimethyl-4,5-dihydrooxazol-2-yl)quinazoline-4,6-diamine] here?
A: 44.3 nM

Q: What about the IC50 (ErbB2 kinase) of the same molecule?
A: 2.4 nM

Q: What about the IC50 (N87) of the same molecule?
A: 23 nM

Q: What about the IC50 (BT-474) of the same molecule?
A: 19.7 nM
